# Test results: patent US20160030407A1, “Method of Treating Inflammatory Lung Disease” (priority 2010, published 2016)
# Where “and” joins values, the source holds several entries; their conditions need not be identical. Equal values may be shown once. Entries after “also recorded” stand apart in the source; their conditions may differ.
# Experiments:
# [1] = Single i.v. dose toxicity: hematology; type: in vivo, Sprague-Dawley rats
# From the text: (§1) On day 15, urine was collected on all surviving animals for urinalysis. The animals were euthanized and bled via cardiac puncture. Blood was collected for hematology, clinical chemistry, and coagulation analysis. Tissues were collected, weighed, and stored in 10% neutral-buffered formalin for possible future analysis.
# nAChR α7 = molecular target: T1, nAChR α7 (Homo sapiens, UniProt P36544); assay: nAChR α7 channel agonist assay (FLIPR); type: cell-based; conditions: in presence of PNU-120596; maximal stimulation not achieved
# T1 construct: host or cells: CHO cells coexpressing RIC-3
# T1 sequence (P36544 23-502): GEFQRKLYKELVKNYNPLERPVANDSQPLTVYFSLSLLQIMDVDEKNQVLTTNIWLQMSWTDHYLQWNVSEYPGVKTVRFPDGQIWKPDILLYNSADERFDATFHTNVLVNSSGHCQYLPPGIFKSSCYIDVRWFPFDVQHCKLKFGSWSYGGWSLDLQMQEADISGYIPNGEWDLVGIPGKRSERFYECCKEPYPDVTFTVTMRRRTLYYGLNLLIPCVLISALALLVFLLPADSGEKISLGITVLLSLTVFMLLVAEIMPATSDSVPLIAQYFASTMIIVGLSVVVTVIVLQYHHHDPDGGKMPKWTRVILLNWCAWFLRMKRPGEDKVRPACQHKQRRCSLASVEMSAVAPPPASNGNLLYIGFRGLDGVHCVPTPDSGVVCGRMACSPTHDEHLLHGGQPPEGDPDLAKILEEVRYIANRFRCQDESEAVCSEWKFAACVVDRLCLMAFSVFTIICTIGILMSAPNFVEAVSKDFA
# Description: Briefly, cells were incubated with […] dye for 30 min at 37° C.
# Therefore, the assay of agonist activity for either Ach or for the test articles was conducted in the presence of the positive allosteric modulator.
# [2] = Single i.v. dose toxicity: necropsy observations and organ weights; type: in vivo, Sprague-Dawley rats
# Description: Body weight and food consumption was measured daily for 14 days. On day 15, urine was collected on all surviving animals. The animals were euthanized and bled via cardiac puncture, and blood was collected for analysis. Tissues were collected, weighed, evaluated for gross abnormalities, and stored in 10% neutral-buffered formalin.
# as §1
# [3] = Single i.v. dose toxicity: coagulation (aPTT, PT); type: in vivo, Sprague-Dawley rats; conditions: for ACTIVE PARTIAL THROMBOPLASTIN TIME: Anatabine 0.1 mg/kg single i.v. dose
# From the text: as §1
# [4] = Physical signs after single i.v. dose (Example 3); type: in vivo, Sprague-Dawley rats; conditions: rat, nicotine 0.4 mg/kg, anatabine 0.10, 0.75, 1.0 mg/kg
# Description: Four aliquots of each dose level formulation were collected and stored at −80° C. The test compound, corresponding dose level, number of animals, and sample collection times for Phase I of the study are shown in Table 3. The test compound, corresponding dose level, number of animals, and sample collection times for Phase II of the study are shown in Table 4. The physical signs of each animal were monitored following administration of the test compound.
# [5] = anatabine 0.75 mg/kg, female rats, individual animals
# [6] = anatabine 0.75 mg/kg, male rats, individual animals
# [7] = Group B: Anatabine 0.1 mg/kg (Females), individual animals
# [8] = Group B: Anatabine 0.1 mg/kg (Males), individual animals
# [9] = Group C: Anatabine 0.75 mg/kg (Females), individual animals
# [10] = Group C: Anatabine 0.75 mg/kg (Males), individual animals
# [11] = female animals, Anatabine 0.1 mg/kg, n = 5
# [12] = female animals, Anatabine 0.75 mg/kg, n = 5
# [13] = male rats, single i.v. 0.1 mg/kg, day 15
# [14] = male rats, single i.v. 0.75 mg/kg anatabine, day 15
smiles,measurement,setting,value
"C1=CCC(c2cccnc2)NC1 (racemic) [Anatabine, 1,2,3,6-tetrahydro-[2,3′]bipyridinyl]",RETICULOCYTE COUNT,"[1]; anatabine 0.1 mg/kg, male rats, individual animals",6.1% and 5.4% and 4.7% and 5.6% and 5.9%
same,ANISOCYTOSIS,[1]; [5],SLIGHT
same,BASOPHIL,[1]; [5],0%
same,EOSINOPHIL,[1]; [5],0%
same,HGB,[1]; [5],15 gm/dL
same,LYMPHOCYTE,[1]; [5],93% (2×) and 87% and 91% and 89%
same,MONOCYTE,[1]; [5],1% (2×) and 0% (2×) and 2%
same,NEUTROPHILSEG,[1]; [5],6% and 12% and 9% (2×) and 7%
same,PLATELETEST,[1]; [5],ADEQUATE; also recorded: INCREASED
same,POLYCHROMASIA,[1]; [5],SLIGHT
same,RETICULOCYTE COUNT,[1]; [5],3.4% and 1.8% and 3.2% and 3.8% and 4.1%
same,ANISOCYTOSIS,[1]; [6],SLIGHT
same,BASOPHIL,[1]; [6],0%
same,EOSINOPHIL,[1]; [6],0%
same,LYMPHOCYTE,[1]; [6],86% and 89% (2×) and 92% and 88%
same,MCH,[1]; [6],21 UUG and 22 UUG
same,MONOCYTE,[1]; [6],1% (3×) and 2% (2×)
same,NEUTROPHILSEG,[1]; [6],13% and 10% (3×) and 6%
same,PLATELETEST,[1]; [6],ADEQUATE; also recorded: DECREASED
same,POLYCHROMASIA,[1]; [6],SLIGHT
same,RETICULOCYTE COUNT,[1]; [6],3.6% and 4.2% and 4.1% and 4.7% and 5.3%
same,mean corpuscular hemoglobin concentration (MCHC) vs control,"[1]; female rats, 0.1 mg/kg anatabine i.v.",small but statistically significant decrease
same,mean corpuscular volume (MCV) and mean corpuscular hemoglobin (MCH) vs control,"[1]; female rats, […] anatabine, 0.75 mg/kg nicotine i.v.","small, but statistically significant decreases"
same,agonist activity,nAChR α7,showed agonist activity
same,Tissue Collection Weights: Heart,[2]; [7],0.95 g
same,Tissue Collection Weights: Ovaries/uterus,[2]; [7],0.96 g and 0.84 g and 0.70 g
same,Tissue Collection Weights: Small intestine,[2]; [7],0.87 g and 0.71 g and 0.55 g and 0.49 g and 0.63 g
same,Tissue Collection Weights: Spleen,[2]; [7],0.79 g and 0.62 g and 0.51 g and 0.67 g and 0.65 g
same,Tissue Collection Weights: Thymus,[2]; [7],0.68 g and 0.59 g and 0.49 g and 0.71 g and 0.73 g
same,Tissue Collection Weights: Heart,[2]; [8],1.60 g
same,Tissue Collection Weights: Kidneys,[2]; [8],3.70 g
same,Tissue Collection Weights: Prostate,[2]; [8],0.72 g and 0.49 g and 0.73 g and 0.53 g and 0.48 g
same,Tissue Collection Weights: Small intestine,[2]; [8],0.61 g and 0.96 g and 0.88 g and 0.50 g and 0.35 g
same,Tissue Collection Weights: Spleen,[2]; [8],0.91 g and 0.66 g and 0.82 g and 0.93 g and 0.76 g
same,Tissue Collection Weights: Thymus,[2]; [8],0.74 g (2×) and 0.76 g and 0.71 g and 0.81 g
same,Tissue Collection Weights: Brain,[2]; [9],1.93 g
same,Tissue Collection Weights: Heart,[2]; [9],0.99 g
same,Tissue Collection Weights: Kidneys,[2]; [9],2.20 g
same,Tissue Collection Weights: Lungs,[2]; [9],1.30 g
same,Tissue Collection Weights: Ovaries/uterus,[2]; [9],0.81 g and 1.50 g and 0.72 g
same,Tissue Collection Weights: Small intestine,[2]; [9],0.72 g and 0.37 g and 0.85 g and 0.47 g
same,Tissue Collection Weights: Spleen,[2]; [9],0.70 g and 0.65 g (2×) and 0.51 g and 0.49 g
same,Tissue Collection Weights: Thymus,[2]; [9],0.56 g and 0.53 g and 0.63 g and 0.52 g and 0.54 g
same,Tissue Collection Weights: Brain,[2]; [10],2.00 g
same,Tissue Collection Weights: Prostate,[2]; [10],0.49 g (2×) and 0.65 g and 0.46 g and 0.45 g
same,Tissue Collection Weights: Small intestine,[2]; [10],0.54 g and 0.56 g and 0.41 g and 0.47 g
same,Tissue Collection Weights: Spleen,[2]; [10],0.71 g and 0.63 g and 0.79 g and 0.93 g and 0.64 g
same,Tissue Collection Weights: Testes,[2]; [10],2.70 g
same,Tissue Collection Weights: Thymus,[2]; [10],0.52 g and 0.67 g and 0.69 g and 0.47 g
same,"Organ Weight Brain, Mean",[2]; [11],1.86 g
same,"Organ Weight Heart, Mean",[2]; [11],1.13 g
same,"Organ Weight Liver, Mean",[2]; [11],10.84 g
same,"Organ Weight Lungs, Mean",[2]; [11],1.41 g
same,"Organ Weight Ovaries/uteris, Mean",[2]; [11],1.14 g
same,"Organ Weight, Small intestine (mean)",[2]; [11],0.65 g
same,"Organ Weight, Spleen (mean)",[2]; [11],0.65 g
same,"Organ Weight, Thymus (mean)",[2]; [11],0.64 g
same,"Organ Weight Brain, Mean",[2]; [12],1.90 g
same,"Organ Weight Heart, Mean",[2]; [12],1.11 g
same,"Organ Weight Kidneys, Mean",[2]; [12],2.30 g
same,"Organ Weight Liver, Mean",[2]; [12],10.42 g
same,"Organ Weight Lungs, Mean",[2]; [12],1.45 g
same,"Organ Weight Ovaries/uteris, Mean",[2]; [12],1.58 g
same,"Organ Weight, Small intestine (mean)",[2]; [12],0.75 g
same,"Organ Weight, Spleen (mean)",[2]; [12],0.60 g
same,"Organ Weight, Thymus (mean)",[2]; [12],0.56 g
same,"Organ Weight, Prostate (mean)",[2]; [13],0.59 g
same,"Organ Weight, Small intestine (mean)",[2]; [13],0.66 g
same,"Organ Weight, Spleen (mean)",[2]; [13],0.82 g
same,"Organ Weight, Thymus (mean)",[2]; [13],0.75 g
same,"Organ Weight, Prostate (mean)",[2]; [14],0.51 g
same,"Organ Weight, Small intestine (mean)",[2]; [14],0.68 g
same,"Organ Weight, Spleen (mean)",[2]; [14],0.74 g
same,"Organ Weight, Thymus (mean)",[2]; [14],0.67 g
same,ACTIVE PARTIAL THROMBOPLASTIN TIME,"[3]; female rats, individual animals B6-B10",26 s
same,ACTIVE PARTIAL THROMBOPLASTIN TIME,"[3]; male rats, individual animals B1-B5",32 s
same,aPTT and PT vs vehicle control,"[3]; rat, each anatabine treatment group",no significant differences in aPTT or PT
same,physical signs post dose,[4],no obvious adverse signs were observed
